Reference: patent US7820646B2, “Cyclized derivatives as Eg-5 inhibitors” (Novartis Vaccines and Diagnostics, Inc., priority 2007, dated 2010)

Legend:
[1] = target: T1, motor domain of human KSP (Eg 5, KNSL1) (Homo sapiens, UniProt P52732); assay: Assay for determining KSP activity (microtubule-stimulated ATPase, Biomol Green); details: KSP motor domain 45 nM, microtubules 35 μg/mL, 1 hour at RT; read-out: Biochemical Activity IC50
T1 construct: KSP motor protein (i.e., the KSP motor domain); made in house
T1 sequence (P52732 18-359 limits assumed): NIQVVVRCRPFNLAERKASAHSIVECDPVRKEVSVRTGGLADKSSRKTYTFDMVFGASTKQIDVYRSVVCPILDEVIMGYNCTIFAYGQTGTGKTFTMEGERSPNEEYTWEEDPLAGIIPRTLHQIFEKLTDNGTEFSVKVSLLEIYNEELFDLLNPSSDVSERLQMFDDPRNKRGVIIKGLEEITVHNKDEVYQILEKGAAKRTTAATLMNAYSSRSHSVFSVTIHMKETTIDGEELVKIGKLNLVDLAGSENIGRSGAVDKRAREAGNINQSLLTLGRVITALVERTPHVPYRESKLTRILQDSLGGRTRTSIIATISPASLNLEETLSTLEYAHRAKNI
Text: This example provides a representative in vitro assay for determining KSP activity in vitro. Purified microtubules obtained from bovine brain were purchased from Cytoskeleton Inc. (Denver, Colo., USA). The motor domain of human KSP (Eg 5, KNSL1) was cloned, expressed, and purified to greater than 95% homogeneity. Biomol Green was purchased from Affinity Research Products Ltd. (Matford Court, Exeter, Devon, United Kingdom). Microtubules and KSP motor protein (i.e., the KSP motor domain) were diluted in assay buffer (20 mM Tris-HCl (pH 7.5), 1 mM MgCl2, 10 mM DTT and 0.25 mg/mL BSA) to a final concentration of 35 μg/mL microtubules and 45 nM KSP. The microtubule/KSP mixture was then pre-incubated at 37° C. for 10 min to promote the binding of KSP to microtubules.
To each well of the testing plate (384-well plate) containing 1.25 μL of inhibitor or test compound in DMSO (or DMSO only in the case of controls) were added 25 μL of ATP solution (ATP diluted to a concentration of 300 μM in assay buffer) and 25 μL of the above-described microtubule/KSP solution. The plates were incubated at RT for 1 hour. Following incubation, 65 μL of Biomol Green (a malachite green-based dye that detects the release of inorganic phosphate) was added to each well. The plates were incubated for an additional 5-10 minutes then the absorbance at 630 nm was determined using a Victor II plate reader. The amount of absorbance at 630 nm corresponded to the amount of KSP activity in the samples. The IC50 of each inhibitor or test compound was then determined based on the decrease in absorbance at 630 nm at each concentration, via nonlinear regression using either XLFit for Excel or Prism data analysis software by GraphPad Software Inc.

[2] = test system: HCT-15 colon carcinoma; assay: Inhibition of cellular proliferation in tumor cell lines (CellTiter Glo), HCT-15; assay type: cell-based; details: Homo sapiens; HCT-15, 72 hours of continuous compound exposure; read-out: Cell Base Activity GI50 HCT-15
Method: (§1) Cells are plated in 96-well plates at densities of about 500 cells per well of a 96-well plate and are allowed to grow for 24 hours. The cells are then treated with various concentrations of compounds for 72 hours. Then, 100 μl of CellTiter Glo is added. CellTiter Glo is a tetrazolium-based assay using the reagent 3-(4,5-dimethylthiazol-2-yl) 5-(3-carboxymethoxyphenyl)-2-(4-sulfophenyl)-2H-tetrazolium (MTS) (U.S. Pat. No. 5,185,450) (see Promega product catalog #G3580, CellTiter 96 Aqueous One Solution Cell Proliferation Assay). The cells are then incubated in the dark for 30 minutes. The amount of luminescence is determined for each well using a Walloc Trilux plate reader, which correlates with the number of cells per well. The number of viable cells in the wells that receive only DMSO (0.5%) serve as an indication of 0% inhibition, while wells without cells serve as 100% inhibition of cell growth. The compound concentration that results in a 50% growth inhibition (GI50) is determined graphically from sigmoidal dose-response curves of log-transformed dose values versus cell counts (percent of control) at 72 hours of continuous compound exposure.
(§2) The cell lines used are listed below.
(§3) The cell proliferation assay is performed as described above.

[3] = test system: HCT-116 colon carcinoma; assay: Inhibition of cellular proliferation in tumor cell lines (CellTiter Glo), HCT-116; assay type: cell-based; details: Homo sapiens; HCT-116, 72 hours of continuous compound exposure; read-out: Cell Base Activity GI50 HCT-116
Method: as §1, §2, §3

[4] = test system: parental cell line; assay: Inhibition of cellular proliferation in tumor cell lines (CellTiter Glo), KB3.1; assay type: cell-based; details: Homo sapiens, KB 3-1; KB3.1, 72 hours of continuous compound exposure; read-out: Cell Base Activity GI50 KB3.1
Method: as §1, §2, §3

[5] = test system: KB8.5 (KB85 - p-glycoprotein associated multi-drug resistant cell line); assay: Inhibition of cellular proliferation in tumor cell lines (CellTiter Glo), KB8.5; assay type: cell-based; details: KB8.5, 72 hours of continuous compound exposure; read-out: Cell Base Activity GI50 KB8.5
Method: as §1, §2, §3

Row | IC50 [1] [nM] | GI50 [2] [nM] | GI50 [3] [nM] | GI50 [5] [nM] | SMILES | GI50 [4] [nM]
1 | > 1000 | > 1000 | > 1000 | > 1000 | C[C@@H]1O[C@H](CN)CN([C@@H](c2nc(-c3cccc(F)c3)cn2Cc2ccccc2)C(C)(C)C)C1=O [Compound 14, (2S,6R)-6-(aminomethyl)-4-{(1R)-1-[1-benzyl-4-(3-fluorophenyl)-1H-imidazol-2-yl]-2,2-dimethylpropyl}-2-methylmorpholin-3-one] | > 1000
2 | 100 to 1000 | > 1000 | > 1000 | > 1000 | C[C@H]1O[C@H](CN)CN([C@@H](c2nc(-c3cccc(F)c3)cn2Cc2ccccc2)C(C)(C)C)C1=O [Compound 15, (2R,6R)-6-(aminomethyl)-4-{(1R)-1-[1-benzyl-4-(3-fluorophenyl)-1H-imidazol-2-yl]-2,2-dimethylpropyl}-2-methylmorpholin-3-one] | > 1000
3 | ≤ 100 | > 1000 | 100 to 1000 | > 1000 | CC(C)(C)[C@H](c1nc(-c2ccccc2)cn1Cc1ccccc1)N1C[C@@H](CN)NC(=O)C1=O [Compound 16, (5R)-5-(aminomethyl)-1-[(1R)-1-(1-benzyl-4-phenyl-1H-imidazol-2-yl)-2,2-dimethylpropyl]piperazine-2,3-dione] | 100 to 1000
4 | ≤ 100 | > 1000 | > 1000 | > 1000 | CC(C)(C)[C@H](c1nc(-c2ccccc2)cn1Cc1ccccc1)N1C[C@H](CN)NC(=O)C1=O [Compound 17, (5S)-5-(aminomethyl)-1-[(1R)-1-(1-benzyl-4-phenyl-1H-imidazol-2-yl)-2,2-dimethylpropyl]piperazine-2,3-dione] | > 1000
5 | ≤ 100 | 100 to 1000 | 100 to 1000 | > 1000 | CN1C(=O)C(=O)N([C@@H](c2nc(-c3ccccc3)cn2Cc2ccccc2)C(C)(C)C)C[C@H]1CN [Compound 18, (5R)-5-(aminomethyl)-1-[(1R)-1-(1-benzyl-4-phenyl-1H-imidazol-2-yl)-2,2-dimethylpropyl]-4-methylpiperazine-2,3-dione] | 100 to 1000
6 | 100 to 1000 | > 1000 | 100 to 1000 | > 1000 | CC(C)(C)[C@H](c1nc(-c2ccccc2)cn1Cc1ccccc1)N1C[C@@H](CN)NCCC1=O [Compound 20, (2R)-2-(aminomethyl)-4-[(1R)-1-(1-benzyl-4-phenyl-1H-imidazol-2-yl)-2,2-dimethylpropyl]-1,4-diazepan-5-one] | 100 to 1000
7 | 100 to 1000 | > 1000 | 100 to 1000 | 100 to 1000 | CC(C)(C)[C@H](c1nc(-c2ccccc2)cn1Cc1ccccc1)N1C[C@@H](CN)OCCC1=O [Compound 23, (2R)-2-(aminomethyl)-4-[(1R)-1-(1-benzyl-4-phenyl-1H-imidazol-2-yl)-2,2-dimethylpropyl]-1,4-oxazepan-5-one] | > 1000
8 | ≤ 100 | 100 to 1000 | ≤ 100 | 100 to 1000 | CC(C)(C)[C@H](c1nc(-c2ccccc2)cn1Cc1ccccc1)N1C[C@@H](CN)COCC1=O [Compound 25, (6R)-6-(aminomethyl)-4-[(1R)-1-(1-benzyl-4-phenyl-1H-imidazol-2-yl)-2,2-dimethylpropyl]-1,4-oxazepan-3-one] | ≤ 100
9 | ≤ 100 | 100 to 1000 | ≤ 100 | ≤ 100 | CC(C)(C)[C@H](c1nc(-c2cccc(F)c2)cn1Cc1ccccc1)N1C[C@@H](CN)COCC1=O [Compound 27, (6R)-6-(aminomethyl)-4-{(1R)-1-[1-benzyl-4-(3-fluorophenyl)-1H-imidazol-2-yl]-2,2-dimethylpropyl}-1,4-oxazepan-3-one] | ≤ 100
10 | ≤ 100 | ≤ 100 | ≤ 100 | ≤ 100 | CC(C)(C)[C@H](c1nc(-c2cccc(F)c2)cn1Cc1cccc(F)c1)N1C[C@@H](CN)COCC1=O [Compound 28, (6R)-6-(aminomethyl)-4-{(1R)-1-[1-(3-fluorobenzyl)-4-(3-fluorophenyl)-1H-imidazol-2-yl]-2,2-dimethylpropyl}-1,4-oxazepan-3-one] | ≤ 100
11 | ≤ 100 | 100 to 1000 | 100 to 1000 | 100 to 1000 | CC(C)(C)[C@H](c1nc(-c2cccc(F)c2)cn1Cc1cccc(F)c1)N1C[C@H](CN)COCC1=O [Compound 29, (6S)-6-(aminomethyl)-4-{(1R)-1-[1-(3-fluorobenzyl)-4-(3-fluorophenyl)-1H-imidazol-2-yl]-2,2-dimethylpropyl}-1,4-oxazepan-3-one] | 100 to 1000
